Target: T1, Human GPR119 (Homo sapiens, UniProt Q8TDV5)
T1 construct: host or cells: HEK293 (ATCC)
T1 sequence (Q8TDV5 1-335): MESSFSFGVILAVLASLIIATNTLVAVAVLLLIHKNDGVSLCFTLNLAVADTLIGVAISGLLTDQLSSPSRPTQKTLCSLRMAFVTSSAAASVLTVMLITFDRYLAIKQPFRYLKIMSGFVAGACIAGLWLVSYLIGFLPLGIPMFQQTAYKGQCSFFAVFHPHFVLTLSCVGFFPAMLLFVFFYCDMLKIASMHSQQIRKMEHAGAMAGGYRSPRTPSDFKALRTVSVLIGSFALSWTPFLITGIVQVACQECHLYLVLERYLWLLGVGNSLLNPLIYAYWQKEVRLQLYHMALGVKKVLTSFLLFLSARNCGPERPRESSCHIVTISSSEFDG
Assay: Human GPR119 activation assay (cAMP, HTRF)
Format: cell-based
Settings: 1 h, HEK293 cells transiently expressing human GPR119, relative to maximum effect of OEA, read-out: hGPR119 activation ability (cAMP assay) Relative Response % vs OEA; for Emax at 0.001 µM: 1 nM; for Emax at 0.01 µM: 10 nM
Source text: <Experimental Example 1>Human GPR119 activation assay
Human GPR119 was temporarily expressed on cells, thereby quantifying the amount of cyclic adenosine 3′,5′-monophosphate (cAMP) increased upon activating GPR119 by the compound of the present invention, using the product from Cysbio, by a method of HTRF (homogeneous time resolved fluorescence), and such quantification was used to refer to efficacy on GPR119 activation.
Human GPR119 expression vector (Origene) was overexpressed in […] renal epithelial cells (HEK293) (ATCC), and the cells were stabilized for 48 hours. With a solution of 11.1 mM glucose, 0.1% bovine serum albumin, and 0.5 mM IBMX (3-isobutyl-1-methylxanthine) which is a phosphodiesterase inhibitor being added to a KRBH (Krebs-Ringer Bicarbonate HEPES; Hou ZQ. et al., Mol Cell Endocrinol, 2008(291):71-78) buffer, the cells were pre-treated for 10 minutes. Thereafter, the cells were treated with the same solution containing a drug for 60 minutes, then the supernatant was removed, and the increase in cAMP in cells was quantified using a Cysbio cAMP HiRange kit.
As to the maximum efficacy of compounds tested, multiple concentration assessment for the compounds of the present invention was carried out, thereby assessing the relative activation level (%) to the maximum effect of oleoylethanolamide (OEA), an endogenous ligand of GPR119.

Emax at 0.001 µM | Emax at 0.01 µM | Compound
163% | 441% | CC(C)c1nnc(-c2c(F)cc(OCCCC3CCN(c4ncc(C(F)(F)F)cn4)CC3)cc2F)o1 [Example 48, 2-(2,6-difluoro-4-(3-(1-(5-(trifluoromethyl)pyrimidin-2-yl)piperidin-4-yl)propoxy)phenyl)-5-isopropyl-1,3,4-oxadiazole]
120% | 308% | CCc1nnc(-c2c(F)cc(OCCCC3CCN(c4cnc(Cl)cn4)CC3)cc2F)o1 [Example 50, 2-(4-(3-(1-(5-chloropyrazin-2-yl)piperidin-4-yl)propoxy)-2,6-difluorophenyl)-5-ethyl-1,3,4-oxadiazole]
95.6% | 120% | CCc1cnc(N2CCC(CCCOc3cc(F)c(-c4nc(CC)cs4)c(F)c3)CC2)nc1 [Example 66, 4-ethyl-2-(4-(3-(1-(5-ethylpyrimidin-2-yl)piperidin-4-yl)propoxy)-2,6-difluorophenyl) thiazole]
66.8% | 108% | CCC(C)c1nc(-c2c(F)cc(OCCCC3CCN(c4ncc(-c5noc(CC(C)C)n5)cn4)CC3)cc2F)no1 (stereo not shown) [Example 33, 5-(sec-butyl)-3-(2,6-difluoro-4-(3-(1-(5-(5-isobutyl-1,2,4-oxadiazol-3-yl)pyrimidin-2-yl)piperidin-4-yl)propoxy)phenyl)-1,2,4-oxadiazole]
34.8% | 113% | CCc1cnc(N2CCC(CCCOc3cc(F)c(C4=N[C@H](C)CO4)c(F)c3)CC2)nc1 [Example 2, (R)-2-(4-(3-(1-(5-ethylpyrimidin-2-yl)piperidin-4-yl)propoxy)-2,6-difluorophenyl)-4-methyl-4,5-dihydrooxazole]
156% | 330% | CCc1cnc(N2CCC(CCCOc3cc(F)c(-c4nnc(NC(C)C)o4)c(F)c3)CC2)nc1 [Example 45, 5-(4-(3-(1-(5-ethylpyrimidin-2-yl)piperidin-4-yl)propoxy)-2,6-difluorophenyl)-N-isopropyl-1,3,4-oxadiazol-2-amine]
192% | 266% | CC(C)c1noc(N2CCC(CCCOc3cc(F)c(C4=N[C@H](C)CO4)c(F)c3)CC2)n1 [Example 10, (R)-5-(4-(3-(3,5-difluoro-4-(4-methyl-4,5-dihydrooxazol-2-yl)phenoxy)propyl)piperidin-1-yl)-3-isopropyl-1,2,4-oxadiazole]
75.1% | 241% | CCCc1noc(N2CCC(CCCOc3cc(F)c(-c4nnc(C(C)C)o4)c(F)c3)CC2)n1 [Example 54, 5-(4-(3-(3,5-difluoro-4-(5-isopropyl-1,3,4-oxadiazol-2-yl)phenoxy)propyl)piperidin-1-yl)-3-propyl-1,2,4-oxadiazole]
201% | 288% | CC(C)Cc1nc(-c2cnc(N3CCC(CCCOc4cc(F)c(-c5noc(C(C)C)n5)c(F)c4)CC3)nc2)no1 [Example 32, 3-(2,6-difluoro-4-(3-(1-(5-(5-isobutyl-1,2,4-oxadiazol-3-yl)pyrimidin-2-yl)piperidin-4-yl)propoxy)phenyl)-5-isopropyl-1,2,4-oxadiazole]
192% | 47.8% | CCc1cnc(N2CCC(CCCOc3cc(F)c(C4=N[C@@H](C)CO4)c(F)c3)CC2)nc1 [Example 3, (S)-2-(4-(3-(1-(5-ethylpyrimidin-2-yl)piperidin-4-yl)propoxy)-2,6-difluorophenyl)-4-methyl-4,5-dihydrooxazole]
114% | 228% | CC(C)c1nnc(-c2c(F)cc(OCCCC3CCN(c4ncc(F)cn4)CC3)cc2F)s1 [Example 63, 2-(2,6-difluoro-4-(3-(1-(5-fluoropyrimidin-2-yl)piperidin-4-yl)propoxy)phenyl)-5-isopropyl-1,3,4-thiadiazole]
97.1% | 241% | CC(C)Cc1nc(-c2cnc(N3CCC(CCCOc4cc(F)c(C5=NC[C@@H](C)O5)c(F)c4)CC3)nc2)no1 [Example 9, (R)-3-(2-(4-(3-(3,5-difluoro-4-(5-methyl-4,5-dihydrooxazol-2-yl)phenoxy)propyl)piperidin-1-yl)pyrimidin-5-yl)-5-isobuty-1,2,4-oxadiazole]
67.8% | 165% | COc1cnc(N2CCC(CCCOc3cc(F)c(-c4noc(C(C)C)n4)c(F)c3)CC2)nc1 [Example 26, 3-(2,6-difluoro-4-(3-(1-(5-methoxypyrimidin-2-yl)piperidin-4-yl)propoxy)phenyl)-5-isopropyl-1,2,4-oxadiazole]
108% | 321% | CCc1cnc(N2CCC(CCCOc3cc(F)c(-c4noc(C(C)(C)C)n4)c(F)c3)CC2)nc1 [Example 16, 5-(tert-butyl)-3-(4-(3-(1-(5-ethylpyrimidin-2-yl)piperidin-4-yl)propoxy)-2,6-difluorophenyl)-1,2,4-oxadiazole]
265% | 373% | CCc1nnc(-c2c(F)cc(OCCCC3CCN(c4nc(C(C)C)no4)CC3)cc2F)o1 [Example 56, 5-(4-(3-(4-(5-ethyl-1,3,4-oxadiazol-2-yl)-3,5-difluorophenoxy)propyl)piperidin-1-yl)-3-isopropyl-1,2,4-oxadiazole]
59.4% | 116% | CCc1nc(-c2c(F)cc(OCCCC3CCN(c4ncc(-c5noc(CC(C)C)n5)cn4)CC3)cc2F)no1 [Example 31, 3-(2,6-difluoro-4-(3-(1-(5-(5-isobutyl-1,2,4-oxadiazol-3-yl)pyrimidin-2-yl)piperidin-4-yl)propoxy)phenyl)-5-ethyl-1,2,4-oxadiazole]
75.3% | 173% | CC(C)c1nc(-c2c(F)cc(OCCCC3CCN(c4ncc(Br)cn4)CC3)cc2F)no1 [Example 29, 3-(4-(3-(1-(5-bromopyrimidin-2-yl)piperidin-4-yl)propoxy)-2,6-difluorophenyl)-5-isopropyl-1,2,4-oxadiazole]
52.1% | 307% | CC(C)c1nc(-c2c(F)cc(OCCCC3CCN(c4cnc(Cl)cn4)CC3)cc2F)no1 [Example 37, 3-(4-(3-(1-(5-chloropyrazin-2-yl)piperidin-4-yl)propoxy)-2,6-difluorophenyl)-5-isopropyl-1,2,4-oxadiazole]
50.7% | 116% | CCc1cnc(N2CCC(CCCOc3cc(F)c(C4=NCCO4)c(F)c3)CC2)nc1 [Example 1, 2-(4-(3-(1-(5-ethylpyrimidin-2-yl)piperidin-4-yl)propoxy)-2,6-difluorophenyl)-4,5-dihydrooxazole]
94.3% | 154% | CCCc1noc(N2CCC(CCCOc3cc(F)c(-c4nnc(CC)o4)c(F)c3)CC2)n1 [Example 53, 5-(4-(3-(3,5-difluoro-4-(5-ethyl-1,3,4-oxadiazol-2-yl)phenoxy)propyl)piperidin-1-yl)-3-propyl-1,2,4-oxadiazole]
235% | 413% | CCc1cnc(N2CCC(CCCOc3cc(F)c(-c4noc(C[C@@H](C)O)n4)c(F)c3)CC2)nc1 [Example 20, (R)-1-(3-(4-(3-(1-(5-ethylpyrimidin-2-yl)piperidin-4-yl)propoxy)-2,6-difluorophenyl)-1,2,4-oxadiazol-5-yl) propan-2-ol]
303% | 436% | CCc1cnc(N2CCC(CCCOc3cc(F)c(-c4noc(CCO)n4)c(F)c3)CC2)nc1 [Example 18, 2-(3-(4-(3-(1-(5-ethylpyrimidin-2-yl)piperidin-4-yl)propoxy)-2,6-difluorophenyl)-1,2,4-oxadiazol-5-yl)ethan-1-ol]
83.4% | 121% | Cc1nnc(-c2c(F)cc(OCCCC3CCN(c4cnc(Cl)cn4)CC3)cc2F)o1 [Example 49, 2-(4-(3-(1-(5-chloropyrazin-2-yl)piperidin-4-yl)propoxy)-2,6-difluorophenyl)-5-methyl-1,3,4-oxadiazole]
